Experimental findings from patent US20230141198A1, “PYRAZOL[…]” (THE KITASATO INSTITUTE, priority 2019, published 2023) are described below.

Common to all, as to type: cell-based
The target in data set [1] is T1, human opioid δ receptor (Homo sapiens, UniProt P41143).
T1 construct: host or cells: CHO cells
Description: Opioid receptor function test (agonist activity, Lance Ultra cAMP kit), δ receptor. To be noted: for Emax: maximum reaction relative to control drug SNC 80 taken as 100%. From the text: (§1) Opioid Receptor Function Test
(§2) Functional activity of the compound provided by the present invention on μ, δ, and κ opioid receptors was examined.
(§3) Method: Using a Lance Ultra cAMP kit (Perkin Elmer), the functional activity was examined by a predetermined method. In evaluation of agonist activity, CHO cells expressing each of human opioid receptors (δ, μ, and κ: accession numbers and catalog numbers are described below) were reacted with a test compound in an assay buffer (1× HBSS, […], pH 7.4, […] isobutylmethylxanthine (IBMX), 7.5% BSA) in the presence of 10 μM forskolin for 30 minutes. Subsequently, a cAMP detection reagent in the kit was added. One hour later, time-resolved fluorescence measurement was performed using an EnVision plate reader (Perkin Elmer). The test compound and each control drug (δ: SNC 80, μ: DAMGO, κ: U-69593) were evaluated in a concentration range of 10^−12 to 10^−5 M. A dose reaction curve of the test compound was determined from a fluorescence value at 665 nm, and an EC50 value and an Emax value were calculated. The Emax value was determined as a ratio of a maximum reaction of the test compound when a maximum reaction of each control drug was taken as 100%.

Data set [2] deals with T2, human opioid κ receptor (Homo sapiens, UniProt P41145).
T2 construct: host or cells: CHO cells
Description: Opioid receptor function test (agonist activity, Lance Ultra cAMP kit), κ receptor. To be noted: for Emax: maximum reaction relative to control drug U-69593 taken as 100%.
Excerpt: as §1, §2, §3

The target in data set [3] is T3, hERG channel (Homo sapiens, UniProt Q12809).
T3 construct: host or cells: CHO cells
Description: hERG potassium channel inhibition test (auto patch clamp). To be noted: hERG channel stably expressing CHO cells, perfused at room temperature for 5 minutes. The protocol: Ether-a-Go-Go Related Gene (hERG) Potassium Channel Inhibition Test
A test was performed using hERG channel stably expressing CHO cells (purchased from Channelopathy Foundation) with a Port-a-Patch auto patch clamping device (Nanion Technologies). A membrane potential of the cells was held at −80 mV, and then a test pulse of −50 mV for 1.5 seconds was applied at a frequency of once every 10 seconds following a depolarization pulse of +20 mV for 1.5 seconds. An hERG current was confirmed by a tail current induced by the test pulse. A test compound was dissolved in an extracellular solution ([…] NaCl, 4 mM KCl, 1.82 mM CaCl2, 1 mM MgCl2, 105 mM D(+)-glucose, 10 mM HEPES, pH 7.4) and perfused at room temperature for 5 minutes. An inhibition ratio was determined from a ratio of a tail current value after application of the compound when a maximum tail current value before application of the compound was taken as 100%. For the test, cells having a peak current value of the tail current of 300 pA or more, tail current run-down of less than 10% of a current initial value, and a leak current of less than 200 pA were used.

Data set [4] deals with T4, human opioid μ receptor (Homo sapiens, UniProt P35372).
T4 construct: host or cells: CHO cells
Description: Opioid receptor function test (agonist activity, Lance Ultra cAMP kit), μ receptor. To be noted: for Emax: maximum reaction relative to control drug DAMGO taken as 100%.
Excerpt: as §1, §2, §3

T4 sequence (P35372 whole entry): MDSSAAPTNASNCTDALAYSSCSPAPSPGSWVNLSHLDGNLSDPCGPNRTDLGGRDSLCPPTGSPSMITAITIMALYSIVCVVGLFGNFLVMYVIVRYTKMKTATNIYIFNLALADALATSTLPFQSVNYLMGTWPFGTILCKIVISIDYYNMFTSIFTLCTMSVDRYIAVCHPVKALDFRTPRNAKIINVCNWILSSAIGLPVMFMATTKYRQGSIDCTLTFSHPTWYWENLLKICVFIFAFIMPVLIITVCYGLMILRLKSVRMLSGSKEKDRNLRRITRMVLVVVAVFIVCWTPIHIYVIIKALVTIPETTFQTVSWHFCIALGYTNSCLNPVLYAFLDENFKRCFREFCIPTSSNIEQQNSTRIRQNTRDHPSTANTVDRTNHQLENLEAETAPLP
T3 sequence (Q12809 whole entry): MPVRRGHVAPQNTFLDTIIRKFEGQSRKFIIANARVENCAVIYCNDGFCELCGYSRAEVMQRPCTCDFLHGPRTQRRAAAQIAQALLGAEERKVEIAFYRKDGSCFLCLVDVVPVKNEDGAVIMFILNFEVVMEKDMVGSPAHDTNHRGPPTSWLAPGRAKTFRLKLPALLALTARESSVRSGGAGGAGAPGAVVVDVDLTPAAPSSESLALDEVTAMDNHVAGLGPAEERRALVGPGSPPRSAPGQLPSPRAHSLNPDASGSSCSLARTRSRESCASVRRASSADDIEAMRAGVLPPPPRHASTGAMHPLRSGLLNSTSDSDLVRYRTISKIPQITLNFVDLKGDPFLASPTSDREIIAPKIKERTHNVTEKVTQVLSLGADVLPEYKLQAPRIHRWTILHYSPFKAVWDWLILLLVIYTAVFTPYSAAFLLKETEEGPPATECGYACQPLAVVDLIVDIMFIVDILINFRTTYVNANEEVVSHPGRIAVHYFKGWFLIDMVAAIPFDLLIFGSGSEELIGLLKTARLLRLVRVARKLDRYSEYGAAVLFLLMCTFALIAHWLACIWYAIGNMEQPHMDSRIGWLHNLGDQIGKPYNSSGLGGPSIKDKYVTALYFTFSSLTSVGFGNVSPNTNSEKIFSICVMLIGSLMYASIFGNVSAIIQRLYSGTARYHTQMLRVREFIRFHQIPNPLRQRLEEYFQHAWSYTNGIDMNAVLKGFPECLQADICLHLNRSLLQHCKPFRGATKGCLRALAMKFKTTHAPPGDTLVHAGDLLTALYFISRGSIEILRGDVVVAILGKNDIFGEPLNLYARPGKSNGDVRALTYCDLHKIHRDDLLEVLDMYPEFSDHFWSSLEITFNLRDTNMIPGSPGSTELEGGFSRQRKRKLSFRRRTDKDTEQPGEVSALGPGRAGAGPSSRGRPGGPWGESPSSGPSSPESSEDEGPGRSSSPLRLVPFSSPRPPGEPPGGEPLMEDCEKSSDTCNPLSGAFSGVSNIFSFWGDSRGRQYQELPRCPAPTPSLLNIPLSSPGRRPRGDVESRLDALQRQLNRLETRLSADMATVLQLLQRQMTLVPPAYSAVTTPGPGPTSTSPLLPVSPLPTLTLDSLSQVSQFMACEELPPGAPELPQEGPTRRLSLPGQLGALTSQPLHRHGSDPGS
T1 sequence (P41143 whole entry): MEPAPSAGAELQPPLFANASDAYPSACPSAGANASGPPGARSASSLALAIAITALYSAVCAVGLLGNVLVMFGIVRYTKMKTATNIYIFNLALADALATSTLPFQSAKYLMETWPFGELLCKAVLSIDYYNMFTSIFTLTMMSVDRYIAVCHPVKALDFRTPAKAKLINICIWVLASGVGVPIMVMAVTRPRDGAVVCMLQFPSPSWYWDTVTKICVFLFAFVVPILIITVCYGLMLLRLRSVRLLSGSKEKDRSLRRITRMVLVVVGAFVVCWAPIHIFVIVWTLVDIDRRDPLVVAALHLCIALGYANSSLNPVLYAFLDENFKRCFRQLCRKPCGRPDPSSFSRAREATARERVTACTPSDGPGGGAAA
T2 sequence (P41145 whole entry): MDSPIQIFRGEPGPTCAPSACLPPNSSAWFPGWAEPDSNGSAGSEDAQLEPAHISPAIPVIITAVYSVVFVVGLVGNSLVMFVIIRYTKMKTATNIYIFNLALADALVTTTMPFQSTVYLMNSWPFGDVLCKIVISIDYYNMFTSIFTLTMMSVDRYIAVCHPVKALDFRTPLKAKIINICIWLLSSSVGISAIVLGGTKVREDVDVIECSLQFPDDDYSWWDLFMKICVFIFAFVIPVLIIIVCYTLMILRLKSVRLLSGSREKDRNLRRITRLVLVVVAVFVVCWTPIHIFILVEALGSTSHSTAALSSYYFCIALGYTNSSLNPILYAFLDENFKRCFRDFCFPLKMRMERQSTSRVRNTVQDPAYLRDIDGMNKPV

As for `Cc1c2c(nn1C(C)(C)C)C[C@]13CCN(CC4CC4)[C@H](Cc4ccc(O)cc41)[C@]3(O)C2` [Compound 24, (6R,6aS,11aR)-9-(tert-butyl)-14-(cyclopropylmethyl)-8-methyl-5,6,9,11-tetrahydro-6,11a-(epiminoethano)naphtho[2,1-f]indazole-2,6a(7H)-diol], the concentration for a half-maximal effect (EC50) was found to be 0.14 nM in data set [1] and 17 nM in data set [2]. In addition, the figures for the Emax in data set [1] and in data set [2] were 108% and 23%, respectively. For the same molecule, the “hERG inhibitory effect (tail current inhibition)” value (shortened to “hERG inhibitory effect”) in data set [3] is “only weak inhibitory effect”.
For `Cc1nn(CCO)c2c1C[C@@]1(O)[C@H]3Cc4ccc(O)cc4[C@@]1(CCN3CC1CC1)C2` [Compound 44, (6R,6aS,11aR)-14-(cyclopropylmethyl)-10-(2-hydroxyethyl)-8-methyl-5,6,10,11-tetrahydro-6,11a-(epiminoethano)naphtho[2,1-f]indazole-2,6a(7H)-diol], the “hERG inhibitory effect” value in data set [3] is “only weak inhibitory effect”.
In data set [1], `Cc1nn(C(C)C)c2c1C[C@@]1(O)[C@H]3Cc4ccc(O)cc4[C@@]1(CCN3CC1CC1)C2` [Compound 23, (6R,6aS,11aR)-14-(cyclopropylmethyl)-10-isopropyl-8-methyl-5,6,10,11-tetrahydro-6,11a-(epiminoethano)naphtho[2,1-f]indazole-2,6a(7H)-diol] gave an EC50 of 0.48 nM and an Emax of 95%. For the same molecule, the “hERG inhibitory effect” value in data set [3] is “only weak inhibitory effect”.
For the molecule `Cc1c2c(nn1-c1ccccc1)C[C@]13CCN(CC4CC4)[C@H](Cc4ccc(O)cc41)[C@]3(O)C2` [Compound 20, (6R,6aS,11aR)-14-(cyclopropylmethyl)-8-methyl-9-phenyl-5,6,9,11-tetrahydro-6,11a-(epiminoethano)naphtho[2,1-f]indazole-2,6a(7H)-diol], the figures for the EC50 in data set [1], in data set [2] and in data set [4] were 0.89 nM, 8.7 nM and 8.1 nM, respectively. In addition, the Emax in data set [1] is 86%; in data set [2], 12%; in data set [4], 10%.
For `Cc1nn(C2CCN(C)CC2)c2c1C[C@@]1(O)[C@H]3Cc4ccc(O)cc4[C@@]1(CCN3CC1CC1)C2` [Compound 91, (6R,6aS,11aR)-14-(cyclopropylmethyl)-8-methyl-10-(1-methylpiperidin-4-yl)-5,6,10,11-tetrahydro-6,11a-(epiminoethano)naphtho[2,1-f]indazole-2,6a(7H)-diol], the EC50 is 0.23 nM in data set [1], 15 nM in data set [2] and 32 nM in data set [4]. The Emax in data set [1] came out at 112%; in data set [2], 25%; in data set [4], 12%.
In the case of `Cc1c2c(nn1C1CCC1)C[C@]13CCN(CC4CC4)[C@H](Cc4ccc(O)cc41)[C@]3(O)C2` [Compound 85, (6R,6aS,11aR)-9-cyclobutyl-14-(cyclopropylmethyl) methyl-5,6,9,11-tetrahydro-6,11a-(epiminoethano)naphtho[2,1-f]indazole-2,6a(7H)-diol], the values for the concentration for a half-maximal effect (EC50) in data set [1], in data set [2] and in data set [4] were 0.092 nM, 17 nM and 16 nM, respectively. Besides, the results for the Emax in data set [1], in data set [2] and in data set [4] were 104%, 25% and 26%, respectively.
Turning to `Cc1c2c(nn1C1CCCC1)C[C@]13CCN(CC4CC4)[C@H](Cc4ccc(O)cc41)[C@]3(O)C2` [Compound 87, (6R,6aS,11aR)-9-cyclopentyl-14-(cyclopropylmethyl)-8-methyl-5,6,9,11-tetrahydro-6,11a-(epiminoethano)naphtho[2,1-f]indazole-2,6a(7H)-diol], the 50% effective concentration (EC50) in data set [1] is 0.11 nM; in data set [2], 59 nM; in data set [4] it was 28 nM. In addition, the maximum response (Emax) in data set [1] came out at 106%; in data set [2] it was 30%; in data set [4], 24%.
For `Cc1nn(-c2ccccc2)c2c1C[C@@]1(O)[C@H]3Cc4ccc(O)cc4[C@@]1(CCN3C)C2` [Compound 61, (6R,6aS,11aR)-8,14-dimethyl-10-phenyl-5,6,10,11-tetrahydro-6,11a-(epiminoethano)naphtho[2,1-f]indazole-2,6a(7H)-diol], the EC50 in data set [1] came out at 15 nM; in data set [2] it was 1030 nM; in data set [4] it was 257 nM. Moreover, the maximal response (Emax) in data set [1] turned out to be 91%; in data set [2] it was 14%; in data set [4] it was 63%.
Consider `Cc1c2c(nn1C(C)C)C[C@]13CCN(CC4CC4)[C@H](Cc4ccc(O)cc41)[C@]3(O)C2` [Compound 22, (6R,6aS,11aR)-14-(cyclopropylmethyl)-9-isopropyl methyl-5,6,9,11-tetrahydro-6,11a-(epiminoethano)naphtho[2,1-f]indazole-2,6a(7H)-diol], for which the EC50 in data set [1] stood at 0.18 nM; in data set [2], 13 nM; in data set [4] it was 15 nM. For the same molecule, the Emax was 107% in data set [1], 35% in data set [2] and 15% in data set [4]. The “hERG inhibitory effect” value in data set [3] is recorded as “only weak inhibitory effect”.

As usually defined, the EC50 is the concentration needed to bring the measured effect to its halfway point. Read a high EC50 as lower potency in that assay. For orientation: Emax means the greatest response seen or fitted, relative to the assay's reference.
